{"source": "patent US8471061B2", "about": "(priority 2004, dated 2013)", "key": {"[1]": {"tested_on": "radish", "experiment": "Plant activating effect, foliar application, radish", "format": "in vivo", "settings": "21 days, 12 seeds", "protocol": "After 600 g of upland soil was packed in a porcelain pot of 12 cm in inner diameter, 12 grains of radish seeds were sowed therein, covered with 5 mm in depth of the soil and allowed to grow in a green house. Foliar application treatment was carried out once a day using the following application liquids. Conditions of the leaves 21 days thereafter were observed."}, "[2]": {"tested_on": "Salmonella typhimurium TA 100", "experiment": "Back mutation test, TA100", "format": "cell-based", "settings": "for number of back mutation, single plates: Phosphate", "protocol": "(§1) A test was carried out in accordance with the “Standard of Mutagenicity Tests Using Microorganisms” (Ministry of Labor Notification No. 77, 1988) (partial revision by Ministry of Labor Notification No. 67, 1997) and “Regarding the Tests Concerning Novel Chemical Substances and the like” (dated Nov. 21, 2003: Yaku-Shoku-Hatsu No. 1121002, 2003.11.13 Sei-Kyoku, No. 2, Kan-Ho-Ki-Hatsu No. 031121002). To 0.1 ml of a solution prepared by dissolving 5% (w/v) of 5-aminolevulinic acid phosphate in distilled water (Wako Pure Chemical Industries), 0.5 ml of 0.1 M sodium-phosphate buffer (pH 7.4) (0.5 ml S9 mix in the case of metabolism activation test) was added, and 0.1 ml of each test strain suspension (5 strains of histidine-less Salmonella typhimurium TA 100, TA 98, TA 1535 and TA 1537 and tryptophan-less Escherichia coli WP2 uvrA were used (Japan Bioassay Research Center)) was further added thereto, followed by pre-incubation at 37° C. for 20 minutes while shaking. After completion of the culturing, 2.0 ml of top agar kept at 45° C. in advance was added thereto and layered on a minimum glucose agar plate medium. In this case, 2 plates were arranged for each dosage. However, 3 plates were arranged for a solvent control (negative control). […] In the measurement, an inner area of about 80 mm in diameter of a plate of 86 mm in diameter (84 mm in inner diameter) was measured using an automatic colony analyzer (CA-11: manufactured by System Science), and calculated by carrying out area correction and counting loss correction using a personal computer. However, since reliability of the automatic colony analyzer is reduced when the number of colonies is 1,500 or more, 5 points in the plate were manually measured under the stereoscopic microscope to carry out area correction of the average value. A dosage setting test was carried out on 7 dosages diluted at a common ratio of 4, using a dosage of 5,000 μg/plate as the maximum which is the maximum dosage defined by the guideline. […] Growth inhibition of the strains by this substance to be tested was not found. […] Thus, this test was carried out by setting 5 dosages diluted at a common ratio of 2, using a dosage of 5,000 μg/plate as the maximum which is the maximum dosage defined by the guideline."}, "[3]": {"experiment": "Chloride ion concentration of aqueous solutions by ion chromatography", "format": "physicochemical", "settings": "detection limit 0.1 ppm; each sample", "protocol": "When chloride ion concentration in the aqueous 5-aminolevulinic acid phosphate solutions used in the above-described examples was measured by ion chromatography under the following conditions, it was equal to or lower than the detection limit (0.1 ppm) in each sample.\n(§2) The measuring conditions are as follows; A: separation column (IonPac AS12A manufactured by Japan Dionex), B: guard column (IonPac AG12A manufactured by Japan Dionex), C: eluting solution (an aqueous solution containing Na2CO3: 3.0 mmol/l and NaHCO3: 0.5 mmol/l), D: flow rate (1.5 ml/min), E: suppressor (ASRS (recycle mode, current value 50 mA)), F: amount of introduced sample (25 μl), G: temperature of constant temperature oven (35° C.) and H: detector (electric conductivity detector).\nWhen chloride ion concentration in the aqueous 5-aminolevulinic acid nitrate solutions used in the above-described examples was measured by ion chromatography under the following conditions, it was equal to or lower than the detection limit (0.1 ppm) in each sample.\nas §2, with “follows:” for “follows;”, “consisting of” for “containing”\nWhen chloride ion concentration in the aqueous 5-aminolevulinic acid p-toluenesulfonate solutions used in the above-described examples was measured by ion chromatography under the following conditions, it was equal to or lower than the detection limit (0.1 ppm) in each sample."}, "[4]": {"tested_on": "Escherichia coli WP2 uvrA", "experiment": "Back mutation test, WP2uvrA", "format": "cell-based", "settings": "for number of back mutation, single plates: Phosphate", "protocol": "as §1"}}, "note": "Several values for one entry are separate records, joined by “and”; a condition that tells them apart may be missing. Equal entries are not always repeated."}
{"smiles": "Cl.NCC(=O)CCC(=O)O", "note": "[5-aminolevulinic acid hydrochloride, reference compound]", "values": [{"measurement": "plants judged 0: Abnormality was not found on the leaf surface", "setting": "[1]; 1 ppm in tap water", "result": 4, "unit": "plants"}, {"measurement": "plants judged 1: A region discolored to yellow was found on the leaf surface", "setting": "[1]; 1 ppm in tap water", "result": 6, "unit": "plants"}, {"measurement": "plants judged 2: A necrotic region was found on the leaf surface", "setting": "[1]; 1 ppm in tap water", "result": 2, "unit": "plants"}, {"measurement": "plants judged 0: Abnormality was not found on the leaf surface", "setting": "[1]; 10 ppm in tap water", "result": 4, "unit": "plants"}, {"measurement": "plants judged 1: A region discolored to yellow was found on the leaf surface", "setting": "[1]; 10 ppm in tap water", "result": 4, "unit": "plants"}, {"measurement": "plants judged 2: A necrotic region was found on the leaf surface", "setting": "[1]; 10 ppm in tap water", "result": 4, "unit": "plants"}, {"measurement": "plants judged 0: Abnormality was not found on the leaf surface", "setting": "[1]; 100 ppm in tap water", "result": 3, "unit": "plants"}, {"measurement": "plants judged 1: A region discolored to yellow was found on the leaf surface", "setting": "[1]; 100 ppm in tap water", "result": 5, "unit": "plants"}, {"measurement": "plants judged 2: A necrotic region was found on the leaf surface", "setting": "[1]; 100 ppm in tap water", "result": 4, "unit": "plants"}]}
{"smiles": "NCC(=O)CCC(=O)O.O=P(O)(O)O", "note": "[5-aminolevulinic acid phosphate, 5-aminolevulinic Acid Phosphate]", "values": [{"measurement": "number of back mutation, mean (in parentheses)", "setting": "[2]; S9 Mix(+), 313 μg/plate", "result": "(134) colonies/plate"}, {"measurement": "number of back mutation, single plates", "setting": "[2]; S9 Mix(+), 313 μg/plate", "result": "146 colonies/plate and 122 colonies/plate"}, {"measurement": "number of back mutation, mean (in parentheses)", "setting": "[2]; S9 Mix(+), 625 μg/plate", "result": "(102) colonies/plate"}, {"measurement": "number of back mutation, single plates", "setting": "[2]; S9 Mix(+), 625 μg/plate", "result": "107 colonies/plate and 96 colonies/plate"}, {"measurement": "number of back mutation, mean (in parentheses)", "setting": "[2]; S9 Mix(+), 1250 μg/plate", "result": "(129) colonies/plate"}, {"measurement": "number of back mutation, single plates", "setting": "[2]; S9 Mix(+), 1250 μg/plate", "result": "128 colonies/plate and 129 colonies/plate"}, {"measurement": "number of back mutation, mean (in parentheses)", "setting": "[2]; S9 Mix(+), 2500 μg/plate", "result": "(106) colonies/plate"}, {"measurement": "number of back mutation, single plates", "setting": "[2]; S9 Mix(+), 2500 μg/plate", "result": "109 colonies/plate and 102 colonies/plate"}, {"measurement": "number of back mutation, mean (in parentheses)", "setting": "[2]; S9 Mix(+), 5000 μg/plate", "result": "(133) colonies/plate"}, {"measurement": "number of back mutation, single plates", "setting": "[2]; S9 Mix(+), 5000 μg/plate", "result": "130 colonies/plate and 136 colonies/plate"}, {"measurement": "number of back mutation, mean (in parentheses)", "setting": "[2]; S9 Mix(−), 313 μg/plate", "result": "(85) colonies/plate"}, {"measurement": "number of back mutation, single plates", "setting": "[2]; S9 Mix(−), 313 μg/plate", "result": "87 colonies/plate and 82 colonies/plate"}, {"measurement": "number of back mutation, mean (in parentheses)", "setting": "[2]; S9 Mix(−), 625 μg/plate", "result": "(90) colonies/plate"}, {"measurement": "number of back mutation, single plates", "setting": "[2]; S9 Mix(−), 625 μg/plate", "result": "84 colonies/plate and 95 colonies/plate"}, {"measurement": "number of back mutation, mean (in parentheses)", "setting": "[2]; S9 Mix(−), 1250 μg/plate", "result": "(99) colonies/plate"}, {"measurement": "number of back mutation, single plates", "setting": "[2]; S9 Mix(−), 1250 μg/plate", "result": "84 colonies/plate and 114 colonies/plate"}, {"measurement": "number of back mutation, mean (in parentheses)", "setting": "[2]; S9 Mix(−), 2500 μg/plate", "result": "(79) colonies/plate"}, {"measurement": "number of back mutation, single plates", "setting": "[2]; S9 Mix(−), 2500 μg/plate", "result": "76 colonies/plate and 82 colonies/plate"}, {"measurement": "number of back mutation, mean (in parentheses)", "setting": "[2]; S9 Mix(−), 5000 μg/plate", "result": "(107) colonies/plate"}, {"measurement": "number of back mutation, single plates", "setting": "[2]; S9 Mix(−), 5000 μg/plate", "result": "115 colonies/plate and 99 colonies/plate"}, {"measurement": "chloride ion concentration in the aqueous solutions used in the examples", "setting": "[3]", "result": "≤ 0.1", "unit": "ppm"}, {"measurement": "number of back mutation, mean (in parentheses)", "setting": "[4]; S9 Mix(+), 313 μg/plate", "result": "(24) colonies/plate"}, {"measurement": "number of back mutation, single plates", "setting": "[4]; S9 Mix(+), 313 μg/plate", "result": "31 colonies/plate and 17 colonies/plate"}, {"measurement": "number of back mutation, mean (in parentheses)", "setting": "[4]; S9 Mix(+), 625 μg/plate", "result": "(32) colonies/plate"}, {"measurement": "number of back mutation, single plates", "setting": "[4]; S9 Mix(+), 625 μg/plate", "result": "40 colonies/plate and 24 colonies/plate"}, {"measurement": "number of back mutation, mean (in parentheses)", "setting": "[4]; S9 Mix(+), 1250 μg/plate", "result": "(32) colonies/plate"}, {"measurement": "number of back mutation, single plates", "setting": "[4]; S9 Mix(+), 1250 μg/plate", "result": "34 colonies/plate and 29 colonies/plate"}, {"measurement": "number of back mutation, mean (in parentheses)", "setting": "[4]; S9 Mix(+), 2500 μg/plate", "result": "(25) colonies/plate"}, {"measurement": "number of back mutation, single plates", "setting": "[4]; S9 Mix(+), 2500 μg/plate", "result": "23 colonies/plate and 27 colonies/plate"}, {"measurement": "number of back mutation, mean (in parentheses)", "setting": "[4]; S9 Mix(+), 5000 μg/plate", "result": "(28) colonies/plate"}, {"measurement": "number of back mutation, single plates", "setting": "[4]; S9 Mix(+), 5000 μg/plate", "result": "25 colonies/plate and 30 colonies/plate"}, {"measurement": "number of back mutation, mean (in parentheses)", "setting": "[4]; S9 Mix(−), 313 μg/plate", "result": "(31) colonies/plate"}, {"measurement": "number of back mutation, single plates", "setting": "[4]; S9 Mix(−), 313 μg/plate", "result": "25 colonies/plate and 36 colonies/plate"}, {"measurement": "number of back mutation, mean (in parentheses)", "setting": "[4]; S9 Mix(−), 625 μg/plate", "result": "(28) colonies/plate"}, {"measurement": "number of back mutation, single plates", "setting": "[4]; S9 Mix(−), 625 μg/plate", "result": "27 colonies/plate and 28 colonies/plate"}, {"measurement": "number of back mutation, mean (in parentheses)", "setting": "[4]; S9 Mix(−), 1250 μg/plate", "result": "(31) colonies/plate"}, {"measurement": "number of back mutation, single plates", "setting": "[4]; S9 Mix(−), 1250 μg/plate", "result": "28 colonies/plate and 33 colonies/plate"}, {"measurement": "number of back mutation, mean (in parentheses)", "setting": "[4]; S9 Mix(−), 2500 μg/plate", "result": "(27) colonies/plate"}, {"measurement": "number of back mutation, single plates", "setting": "[4]; S9 Mix(−), 2500 μg/plate", "result": "25 colonies/plate and 28 colonies/plate"}, {"measurement": "number of back mutation, mean (in parentheses)", "setting": "[4]; S9 Mix(−), 5000 μg/plate", "result": "(31) colonies/plate"}, {"measurement": "number of back mutation, single plates", "setting": "[4]; S9 Mix(−), 5000 μg/plate", "result": "25 colonies/plate and 36 colonies/plate"}]}
